For data set [1], the system named is BEL-7402 cells. Briefly: MTT antiproliferative assay, BEL-7402. It counts as cell-based, human. The procedure, abridged: (§1)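 Cells seeded at 9 × 10^3 per well, allowed 24 h to adhere, then exposed 48 h to compound at 1, 10, 50 and 100 µM. MTT added to 2 mg/mL for 4 h, formazan dissolved in DMSO, OD read at 492 nm; inhibition calculated relative to untreated and blank wells.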
(In general: Tetrazolium dyes change colour on reduction, which living cells bring about.)

Data set [2] is described as follows: MTT antiproliferative assay, BEL-7402. It counts as cell-based, human. To be noted: human, BEL-7402 liver cancer cells versus normal L02 cells; BEL-7402 vs L02. The procedure, abridged:
as §1

The subject of data set [3] is Cyclin E1. Briefly: Western blot, cyclin E1 in HCT-116 cells. Format: cell-based, human. The following applies: HCT-116, 5, 10 and 15 μM, 24 h, concentration-dependent. The procedure: (§2) HCT-116 cells were cultured with different concentrations of compound 5d for 24 h. Then, the floating cells was collected and washed two times with ice cold PBS. The pellet was resuspended in lysis buffer. After the cells were lysed on ice for 20 min, lysates were centrifuged at 12,000 rpm at 4 °C for 15 min. The protein concentration in the supernatant was determined using BCA protein assay reagents. Equal amounts of protein (50 μg) were resolved using sodium dodecyl sulphate-polyacrylamide gel electrophoresis (SDS-PAGE) (8−12% acrylamide gels) and transferred to a PVDF Hybond-P membrane. Membranes were blocked with PBS containing 5% non-fat milk for 1 h at room temperature. Membranes were then incubated with primary antibodies against Cyclin A (ENT1167, Elabscience, Wuhan, China), Cyclin E1 (ENT1176, Elabscience, Wuhan, China), Cyclin B1 (ENT1169, Elabscience, Wuhan, China) and β-actin (ENM0028, Elabscience, Wuhan, China), with gentle rotation overnight at 4 °C. Membranes were next incubated with fluorescent secondary antibodies for 2 h. Proteins were detected by electrochemiluminescence (Bio-Rad, Hercules, CA, USA).
(In general: A western blot detects proteins with antibodies after separation by electrophoresis.)

In data set [4] the test system is HCT-116 cells. Put plainly: MTT antiproliferative assay, HCT-116. It counts as cell-based, human. The procedure, abridged: as §1
Data set [5] can be described thus: MTT antiproliferative assay, HCT-116. Format: cell-based, human. To be noted: human, HCT-116 colorectal cancer cells versus normal L02 cells; HCT-116 vs L02. The procedure, abridged: as §1
For data set [6], the system named is HCT-116 cells. Put plainly: Colony formation assay. Format: cell-based. To be noted: Homo sapiens, HCT-116, 168 h, 7 days, read-out: inhibition rate of colony formation. As for the experimental part: Exponentially growing determined HCT-116 cells (6 × 10^2 per well) were plated in 6-well plates with the Roswell Park Memorial Institute (RPMI) 1640 culture medium (Gibco, USA) containing with 10% fetal bovine serum (FBS) (Gibco, Waltham, MA, USA). After an overnight incubation, the culture medium was removed and replaced fresh medium. Then, the cells were treated with various concentrations of compound 5d (5, 10 and 15 μM) dissolved in DMSO. Some cells were treated with DMSO only as a negative control. The cells were then incubated for another 7 days. Finally, the cells were fixed with 4% paraformaldehyde for 30 min and stained with 0.1% crystal violet for 15 min at room temperature, after which, the staining was washed with PBS until the colonies were totally cleared.

Data set [7] concerns HCT-116 cells. Briefly: Apoptosis by annexin V-FITC/propidium iodide flow cytometry. It counts as cell-based, human. The following applies: 24 h; for percentage of total apoptotic cells (UR + LR): control 5.98%. As for the experimental part:
Apoptosis was detected using an Apoptosis Detection Kit (Invitrogen, Eugene, OR, USA). In brief, cells were cultured in 6-well plates (5.0 × 10^5 cells per well) and incubated at 37 °C for 24 h. Cells with exponential growth were then incubated with compound 5d at 5 and 15 µM. Following 24 h of incubation, the cells were collected, washed twice with PBS and once with 1 × binding buffer and then stained with […] of annexin V-FITC and […] of PI 5mg/mL in 1 × binding buffer for 30 min at room temperature in the dark. Apoptotic cells were enumerated using a FACSCalibur flow cytometer with Cell Quest software (Becton–Dickinson, Franklin Lakes, NJ, USA).
For orientation: A flow cytometer gives signals particle by particle.

Data set [8] is described as follows: MTT antiproliferative assay, HepG2. Format: cell-based, human. To be noted: human, HepG2 liver cancer cells versus normal L02 cells; HepG2 vs L02. The procedure, abridged:
as §1

Data set [9] concerns HepG2 cells. Put plainly: MTT antiproliferative assay, HepG2. It counts as cell-based, human. In outline: as §1
For data set [10], the system named is Cyclin B1. Briefly: Western blot, cyclin B1 in HCT-116 cells. It counts as cell-based, human. To be noted: HCT-116, 5, 10 and 15 μM, 24 h, concentration-dependent. The procedure:
as §2

In data set [11] the test system is Cyclin A. Put plainly: Western blot, cyclin A in HCT-116 cells. To be noted: HCT-116, 5, 10 and 15 μM, 24 h, concentration-dependent. Format: cell-based, human. As for the experimental part:
as §2

[12] abbreviates: IC50 on normal cells (L02)/IC50 on cancer cells.

The term inhibition denotes the share of the control response that was lost under treatment. By IC50 is commonly meant the concentration at which inhibition is half-maximal. Read a high IC50 as weaker potency in that assay.

With `Cc1ccc(-n2cc(CNC(=O)COC(=O)[C@]3(C)CCC[C@@]4(C)[C@@H]5CC[C@@]6(C)C[C@]5(CC[C@@H]43)CC6=O)nn2)cc1` [Compound 5d, 2-oxo-2-(((1-(p-tolyl)-1H-1,2,3-triazol-4-yl)methyl)amino)ethyl(4R,4aS,6aR,9S,11aR,11bS)-4,9,11b-trimethyl-8-oxotetradecahydro-6a,9-methanocyclohepta[a]naphthalene-4-carboxylate], the inhibition at 100 µM in data set [1] (Homo sapiens, Bel-7402, 100 μM, 48 h, MTT, mean ± SD, n=3, read-out: % Growth Inhibition at 100 μM BEL-7402) worked out at 86.5 ± 0.87%; in data set [4] (Homo sapiens, HCT-116, 100 μM, 48 h, MTT, mean ± SD, n=3, read-out: % Growth Inhibition at 100 μM HCT-116) it was 84.6 ± 0.96%; in data set [9] (Homo sapiens, HepG2, 100 μM, 48 h, MTT, mean ± SD, n=3, read-out: % Growth Inhibition at 100 μM HepG2), 82.8 ± 0.86%. Besides, the IC50 in data set [1] (Homo sapiens, Bel-7402, 48 h, MTT, mean ± SD, n=3) was 15.9 ± 0.41 µM; in data set [4] (Homo sapiens, HCT-116, 48 h, MTT, mean ± SD, n=3), 5.38 ± 0.26 µM; in data set [9] (Homo sapiens, HepG2, 48 h, MTT, mean ± SD, n=3), 8.92 ± 0.44 µM. For the same molecule, in data set [1] (setting [12]), the “Selectivity Index BEL-7402” value is on record as 10.12. The “fold more active than 5-FU” value amounted to 1.3 fold in data set [1] (against BEL-7402 cells), 4.6 fold in [4] (against HCT-116 cells) and 2.6 fold in data set [9] (against HepG2 cells). Besides, the selectivity ratio at 48 h stood at 11.2 in [2], 38.2 in [5] and 22 in [8]. Also, the “cyclin E1 protein level” value in [3] is “decreased”. In data set [4] (setting [12]), the “Selectivity Index HCT-116” value is on record as 29.93. Moreover, the inhibition at 15 µM in data set [6] came out at 84%. Besides, the figures for the “percentage of total apoptotic cells (UR + LR)” value in [7] (5 μM) and in [7] (15 μM) were 7.67% and 24.94%, respectively. Moreover, the “dead cells (UL)” value in [7] (15 μM, control 8.84%) was 49.22%. For the same molecule, in [9] (setting [12]), the “Selectivity Index HepG2” value is recorded as 18.05. In [10], the “cyclin B1 protein level” value is on record as “increasing”. The “cyclin A protein level” value in [11] is listed as “decreased”.
